This note sets out measurements from ChEMBL document CHEMBL1201862, “PubChem BioAssay data set” (2004).

Holding throughout (assay): NCI-60 cell line screen, 48 h
Assay [1] deals with NCI-H460.
Assay [2] deals with A498.
Assay [3] deals with IGROV-1.
For assay [4], the system named is CAKI-1.
Assay [5] has as its system SK-MEL-5.
Assay [6] has as its system HCT-116.
Assay [7] concerns NCI-H226.
Assay [8] has as its system OVCAR-4.
Assay [9] concerns KM12.
Assay [10] deals with M14.
Assay [11] concerns OVCAR-5.
Assay [12] relates to UACC-62.
In assay [13] the test system is HT-29.
For assay [14], the system named is SF-539.
In assay [15] the test system is NCI-H522.
Assay [16] relates to MDA-N.
In assay [17] the test system is LOX IMVI.
The test system of assay [18] is DU-145.
For assay [19], the system named is SNB-19.
Assay [20] relates to SF-295.

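The compound was tested at five concentrations on cells cultured in 96-well plates, with a 48-hour exposure period. GI50 is the concentration that inhibits growth by half.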 Activity calls are given as the source filed them. No stated cut-off is given here; in the data, active = GI50 up to about 1.1 µM and inactive = higher. Some results are limits rather than exact numbers.

For `Cc1nc2ccccc2[nH]/c1=N/Nc1ccccc1`, the GI50 in [1] was 35.6 µM (inactive); in [2] it was 31.8 µM (inactive); in assay [3] it was 3.73 µM (inactive); in assay [4], 27 µM (inactive); in [5] it was 14 µM (inactive); in assay [6], 25.8 µM (inactive). In addition, the GI50 in [7] is 18.3 µM (inactive); in [8], 9.66 µM (inactive); in [9] it was 14.5 µM (inactive); in assay [10], 20.2 µM (inactive); in assay [11], 26.7 µM (inactive); in [12] it was 16.3 µM (inactive). For the same compound, the GI50 in assay [13] is 0.0417 µM (active); in assay [14], 44.5 µM (inactive); in assay [15], 26.1 µM (inactive); in assay [16], 19.5 µM (inactive); in assay [17], 23.3 µM (inactive); in [18] it was 22.7 µM (inactive). The results for the GI50 in [19] and in [20] were 45.1 µM (inactive) and 18.6 µM (inactive), respectively.

With `CCCCCCCCCCCCCCCCCCNC(=O)OCC(CNS(=O)(=O)CCC[n+]1cccc2ccccc21)COC` (stereo not given), the GI50 in assay [1] was 1.34 µM (inactive); in assay [2], 10.9 µM (inactive); in assay [3], 1.17 µM (inactive); in assay [4], 7.82 µM (inactive); in assay [5], 2.06 µM (inactive); in assay [6] it was 1.35 µM (inactive). In addition, the GI50 is 1.05 µM (active) in assay [7]; 1.31 µM (inactive) in assay [8]; 1.84 µM (inactive) in assay [9]; 3.7 µM (inactive) in assay [10]; 2.13 µM (inactive) in [11]; 1.96 µM (inactive) in assay [12]. In addition, the GI50 in [13] was 0.565 µM (active); in assay [14] it was 2.01 µM (inactive); in assay [15] it was 1.02 µM (active); in assay [16] it was 1.81 µM (inactive); in assay [17] it was 2.01 µM (inactive); in assay [18] it was 12.4 µM (inactive). Also, the GI50 in [19] is 1.4 µM (inactive); in [20] it was 2.6 µM (inactive).

For the compound `CCOc1ccc(NC(=O)C(=O)C(/C(=N/N)C(=O)OC)c2nc3ccc([N+](=O)[O-])cc3nc2O)cc1` (stereo not given), the GI50 in assay [1], in assay [2], in assay [3], in [4], in assay [5] and in assay [6] was > 100 µM (inactive) each time. Further, the GI50 in [7], in [8], in assay [9], in [10], in assay [11] and in [12] was > 100 µM (inactive) in each case. Moreover, the GI50 in assay [13], in assay [14], in assay [15], in [16], in [17] and in assay [18] was > 100 µM (inactive) throughout. The GI50 in assay [19] and in [20] was > 100 µM (inactive) in each case.

As for `c1c[nH]c(C23C4C5C6C4C2C6C53)n1` (stereo not given), the GI50 in assay [1], in assay [2], in [3], in assay [4], in assay [5] and in assay [6] was > 100 µM (inactive) throughout. In addition, the GI50 in assay [7] is > 100 µM (inactive); in assay [8], 30.6 µM (inactive); in assay [9], > 100 µM (inactive); in assay [10] it was > 100 µM (inactive); in [11] it was > 100 µM (inactive); in assay [12] it was > 100 µM (inactive). The GI50 in [13], in assay [14], in assay [15], in assay [16], in assay [17] and in assay [18] was > 100 µM (inactive) each time. Moreover, the GI50 in assay [19] and in assay [20] was > 100 µM (inactive) throughout.

As for `N#Cc1ccc(NC(=O)C(CC(=O)OCc2ccccc2)NC(=O)OCc2ccccc2)cc1` (stereo not given), the GI50 in [1] was > 10 µM (inactive); in assay [2], > 10 µM (inactive); in assay [3], > 10 µM (inactive); in assay [4], > 10 µM (inactive); in assay [5] it was 92 µM (inactive); in assay [6], > 10 µM (inactive). Further, the GI50 in assay [7], in assay [8], in assay [9], in assay [10], in assay [11] and in assay [12] was > 10 µM (inactive) in each case. The GI50 was > 10 µM (inactive) in [13]; > 10 µM (inactive) in assay [14]; > 10 µM (inactive) in assay [15]; > 10 µM (inactive) in assay [16]; > 10 µM (inactive) in assay [17]; 3.72 µM (inactive) in [18]. Moreover, the GI50 in assay [19] and in assay [20] was > 10 µM (inactive) throughout.

With `c1ccc(-c2cc(C3CO3)c3ccccc3n2)cc1` (stereo not given), the GI50 in assay [1] is 18.8 µM (inactive); in assay [2], 19.7 µM (inactive); in assay [3] it was 17.9 µM (inactive); in assay [4], 22.5 µM (inactive); in assay [5], 16.7 µM (inactive); in assay [6] it was 16.5 µM (inactive). Further, the GI50 in assay [7] was 19.1 µM (inactive); in assay [8], 21.5 µM (inactive); in assay [9], 17.5 µM (inactive); in [10], 18.9 µM (inactive); in assay [11] it was 22 µM (inactive); in assay [12] it was 18.5 µM (inactive). Also, the GI50 in assay [13] was 19.4 µM (inactive); in assay [14], 21.2 µM (inactive); in assay [15] it was 3.99 µM (inactive); in assay [16], 19.1 µM (inactive); in [17] it was 18.6 µM (inactive); in assay [18], 16.9 µM (inactive). Also, the results for the GI50 in [19] and in [20] were 29.1 µM (inactive) and 35.2 µM (inactive), respectively.

For the compound `Cc1oc2c(c1C)S(=O)(=O)C(C#N)=C(N(C)C)N2`, the GI50 in [1], in assay [2], in assay [3], in [4], in assay [5] and in assay [6] was > 100 µM (inactive) each time. The GI50 in assay [7], in assay [8], in assay [9], in assay [10], in assay [11] and in assay [12] was > 100 µM (inactive) in each case. The GI50 in assay [13], in [14], in assay [15], in [16], in [17] and in [18] was > 100 µM (inactive) throughout. Further, the GI50 in assay [19] and in assay [20] was > 100 µM (inactive) throughout.

Turning to `C=CCN1C(=O)/C(=C/c2ccco2)N=C1SC/C=C/C`, the GI50 in assay [1] is 57.9 µM (inactive); in assay [2], 43.3 µM (inactive); in assay [3], 51.2 µM (inactive); in assay [4], 90.8 µM (inactive); in [5], 20.6 µM (inactive); in assay [6], 27.5 µM (inactive). Moreover, the GI50 was > 100 µM (inactive) in assay [7]; 60.5 µM (inactive) in assay [8]; 39.6 µM (inactive) in assay [9]; 64.1 µM (inactive) in assay [10]; > 100 µM (inactive) in assay [11]; 25.9 µM (inactive) in [12]. Also, the GI50 was 40.4 µM (inactive) in assay [13]; > 100 µM (inactive) in [14]; 34 µM (inactive) in assay [15]; 21.7 µM (inactive) in assay [16]; 26.5 µM (inactive) in assay [17]; > 100 µM (inactive) in assay [18]. The GI50 is 71.3 µM (inactive) in assay [19] and 40.4 µM (inactive) in assay [20].

In the case of `COc1cc(/C=C/C=C2\CC/C(=C\C=C\c3ccc(O)c(OC)c3)C2=O)ccc1O`, the GI50 was > 100 µM (inactive) in [1]; > 100 µM (inactive) in assay [2]; > 100 µM (inactive) in assay [3]; > 100 µM (inactive) in assay [4]; > 87.9 µM (inactive) in assay [5]; > 100 µM (inactive) in assay [6]. Further, the GI50 in assay [7] was > 100 µM (inactive); in assay [8] it was > 60.1 µM (inactive); in assay [9] it was > 100 µM (inactive); in assay [10], > 100 µM (inactive); in assay [11], > 100 µM (inactive); in assay [12], > 100 µM (inactive). For the same compound, the GI50 is > 100 µM (inactive) in assay [13]; > 100 µM (inactive) in assay [14]; 1.45 µM (inactive) in assay [15]; > 100 µM (inactive) in assay [16]; > 100 µM (inactive) in assay [17]; > 100 µM (inactive) in assay [18]. In addition, the GI50 in assay [19] and in assay [20] was > 100 µM (inactive) in each case.

Take `CCOC(=O)CNC(=O)C(CSC(=O)N(O)c1ccc(Br)cc1)NC(=O)CCC(N)C(=O)OCC` (stereo not given): the GI50 in assay [1], in assay [2], in assay [3], in assay [4], in assay [5] and in [6] was > 50 µM (inactive) in each case. The GI50 in assay [7] was > 50 µM (inactive); in assay [8], > 50 µM (inactive); in [9], 45.8 µM (inactive); in [10] it was > 50 µM (inactive); in [11], > 50 µM (inactive); in assay [12], > 50 µM (inactive). In addition, the GI50 in assay [13] was > 50 µM (inactive); in [14], > 50 µM (inactive); in assay [15] it was > 50 µM (inactive); in assay [16], > 50 µM (inactive); in assay [17], 40.1 µM (inactive); in assay [18] it was > 50 µM (inactive). Besides, the GI50 in assay [19] and in assay [20] was > 50 µM (inactive) in each case.
